Measurements published in patent US20240116922A1, “IMIDAZO[1,2-A]PYRIDINE DERIVATIVES AS IRAK4 INHIBITORS AND THEIR USE IN THE TREATMENT OF DISEASE” (BIOGEN MA INC., priority 2020, published 2024).
pIC50: −log10 of the molar value. Values after ≈ are worked out from the molar mass of the structure shown. Where a name gives a salt, the structure may show the parent alone.

Columns and labels:
MDR1 = MDR1 (Homo sapiens (Human), UniProt P08183); experiment: in vitro; conditions: MDCK-MDR1
[1] = Kinetic solubility assay (CLND), pH 6.8; assay type: physicochemical; conditions: aqueous buffer, kinetic from dmso stock; potassium phosphate buffer pH 6.8, 2% DMSO, 24 hours at ambient temperature
IRAK4 = IRAK4 (Homo sapiens (Human), UniProt Q9NWZ3); experiment: IRAK4 MSD biochemical assay (2-hour 1 mM ATP); conditions: 0.1 nM IRAK4, 1 mM ATP, 2 hour at room temperature
IRAK4, sequence (Q9NWZ3 whole entry): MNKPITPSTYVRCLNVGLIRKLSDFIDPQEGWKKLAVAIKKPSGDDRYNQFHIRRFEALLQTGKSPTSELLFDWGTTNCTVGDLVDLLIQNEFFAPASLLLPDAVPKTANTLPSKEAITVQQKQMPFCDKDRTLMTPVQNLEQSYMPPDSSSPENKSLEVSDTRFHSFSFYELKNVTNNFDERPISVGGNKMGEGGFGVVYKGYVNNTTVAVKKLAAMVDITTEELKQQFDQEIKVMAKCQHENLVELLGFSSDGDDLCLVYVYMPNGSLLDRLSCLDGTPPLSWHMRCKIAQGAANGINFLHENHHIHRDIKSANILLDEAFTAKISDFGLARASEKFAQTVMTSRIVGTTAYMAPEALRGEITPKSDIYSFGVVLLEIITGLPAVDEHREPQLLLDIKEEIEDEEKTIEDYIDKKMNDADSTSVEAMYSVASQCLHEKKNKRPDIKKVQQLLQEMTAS

MDR1, sequence (P08183 whole entry): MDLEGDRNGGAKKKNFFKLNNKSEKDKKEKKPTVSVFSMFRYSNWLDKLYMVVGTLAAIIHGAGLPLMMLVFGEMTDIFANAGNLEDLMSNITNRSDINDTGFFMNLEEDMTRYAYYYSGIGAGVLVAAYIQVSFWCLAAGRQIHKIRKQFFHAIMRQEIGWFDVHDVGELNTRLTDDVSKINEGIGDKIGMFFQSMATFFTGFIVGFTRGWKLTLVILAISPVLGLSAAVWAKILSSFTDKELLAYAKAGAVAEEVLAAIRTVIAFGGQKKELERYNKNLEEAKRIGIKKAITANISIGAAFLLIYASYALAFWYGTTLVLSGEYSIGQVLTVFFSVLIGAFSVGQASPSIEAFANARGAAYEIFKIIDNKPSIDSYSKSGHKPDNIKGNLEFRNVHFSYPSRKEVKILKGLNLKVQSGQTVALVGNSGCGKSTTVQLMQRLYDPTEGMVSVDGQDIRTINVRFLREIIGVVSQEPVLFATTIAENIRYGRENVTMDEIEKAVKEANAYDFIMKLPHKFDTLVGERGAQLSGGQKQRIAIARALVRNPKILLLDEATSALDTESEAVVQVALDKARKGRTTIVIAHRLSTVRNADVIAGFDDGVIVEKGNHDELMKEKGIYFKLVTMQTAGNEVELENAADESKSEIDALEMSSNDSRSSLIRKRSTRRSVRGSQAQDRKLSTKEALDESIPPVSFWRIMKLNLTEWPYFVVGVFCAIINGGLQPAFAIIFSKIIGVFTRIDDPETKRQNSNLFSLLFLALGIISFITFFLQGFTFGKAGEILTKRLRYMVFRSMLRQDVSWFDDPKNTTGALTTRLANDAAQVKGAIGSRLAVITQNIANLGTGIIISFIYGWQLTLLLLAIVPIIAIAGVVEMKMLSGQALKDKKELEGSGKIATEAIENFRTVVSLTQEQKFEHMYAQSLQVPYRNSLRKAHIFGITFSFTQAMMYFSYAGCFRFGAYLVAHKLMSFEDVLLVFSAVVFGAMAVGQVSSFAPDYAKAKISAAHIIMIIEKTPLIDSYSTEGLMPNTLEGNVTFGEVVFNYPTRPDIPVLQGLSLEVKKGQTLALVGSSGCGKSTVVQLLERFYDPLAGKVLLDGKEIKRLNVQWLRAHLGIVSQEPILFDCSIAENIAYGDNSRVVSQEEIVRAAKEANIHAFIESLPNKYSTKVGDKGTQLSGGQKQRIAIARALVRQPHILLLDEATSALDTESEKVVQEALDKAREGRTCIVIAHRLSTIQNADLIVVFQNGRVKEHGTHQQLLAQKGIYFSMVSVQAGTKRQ

Row | efflux ratio at 120 min, 1 μM (MDR1) | solubility kinetic at 24 h [1] | pIC50 (IRAK4) | Compound
1 | 4.7 | 6.1 µg/mL (≈ 13.9 µM) | 9.52 | CC(C)Oc1cc2nc([C@@H]3COCCO3)cn2cc1C(=O)Nc1cccn(C2CC2)c1=O (single isomer, unassigned) [Example 69]
2 | 4.4 | 38.6 µg/mL (≈ 83.5 µM) | 9.30 | CC(C)Oc1cc2nc(C34COC(C)(C3)C4)cn2cc1C(=O)Nc1cccn([C@H]2C[C@H]2C)c1=O [Example 134, 7-isopropoxy-2-(1-methyl-2-oxabicyclo[2.1.1]hexan-4-yl)-N-(1-((1S,2R)-2-methylcyclopropyl)-2-oxo-1,2-dihydropyridin-3-yl)imidazo[1,2-a]pyridine-6-carboxamide]
3 | 5 | 49.6 µg/mL (≈ 107 µM) | 9.30 | CC[C@H](C)Oc1nc2nc(C34COC(C)(C3)C4)cn2cc1C(=O)Nc1cccn(C2CC2)c1=O (single isomer, unassigned) [Example 64]
4 | 9 | 72.1 µg/mL (≈ 150 µM) | 9.40 | CC[C@@H](C)Oc1nc2nc(C34COC(C)(C3)C4)cn2cc1C(=O)Nc1cccn([C@H]2C[C@H]2F)c1=O (single isomer, unassigned) [Example 58]
5 | 21.8 | 73.2 µg/mL (≈ 146 µM) | 10.00 | C[C@@H](Oc1cc2nc(C34COC(C)(C3)C4)cn2cc1C(=O)Nc1cccn(C2C[C@H]2F)c1=O)C(F)F (stereo partly drawn) [Example 185]
6 | 1.4 | 24.9 µg/mL (≈ 50.9 µM) | 9.10 | CC(C)Oc1nc2nc([C@]34CC[C@](C)(C3)OC4)cn2cc1C(=O)Nc1cccn([C@H]2CC23CC3)c1=O (single isomer, unassigned) [Example 152]
7 | 1.4 | 40.4 µg/mL (≈ 87.2 µM) | 8.80 | CC(C)Oc1cc2nc([C@]34CC[C@](C)(C3)OC4)cn2cc1C(=O)Nc1ccnn(C2CC2)c1=O [Example 75, N-(2-cyclopropyl-3-oxo-2,3-dihydropyridazin-4-yl)-7-isopropoxy-2-((1R,4S)-1-methyl-2-oxabicyclo[2.2.1]heptan-4-yl)imidazo[1,2-a]pyridine-6-carboxamide]
8 | 10.9 | 22.6 µg/mL (≈ 47.2 µM) | 9.70 | CC12CC(c3cn4cc(C(=O)Nc5cccn([C@H]6C[C@H]6F)c5=O)c(OC5CCC5)cc4n3)(CO1)C2 (single isomer, unassigned) [Example 173]
9 | 3 | 38.4 µg/mL (≈ 83 µM) | 9.30 | CC(C)Oc1cc2nc(C34COC(C)(C3)C4)cn2cc1C(=O)Nc1cccn([C@@H]2C[C@H]2C)c1=O [Example 139, 7-isopropoxy-2-(1-methyl-2-oxabicyclo[2.1.1]hexan-4-yl)-N-(1-((1R,2R)-2-methylcyclopropyl)-2-oxo-1,2-dihydropyridin-3-yl)imidazo[1,2-a]pyridine-6-carboxamide]
10 | 1 | 47.5 µg/mL (≈ 102 µM) | 8.92 | CC(C)Oc1cc2nc([C@@]34CC[C@@](C)(C3)OC4)cn2cc1C(=O)Nc1ccnn(C2CC2)c1=O [Example 74, N-(2-cyclopropyl-3-oxo-2,3-dihydropyridazin-4-yl)-7-isopropoxy-2-((1S,4R)-1-methyl-2-oxabicyclo[2.2.1]heptan-4-yl)imidazo[1,2-a]pyridine-6-carboxamide]
11 | 8.7 | 59.5 µg/mL (≈ 124 µM) | 7.90 | CC12CC(c3cn4cc(C(=O)Nc5cccn([C@@H]6C[C@@H]6F)c5=O)c(OC5CCC5)nc4n3)(CO1)C2 (single isomer, unassigned) [Example 113]
12 | 3.4 | 32.6 µg/mL (≈ 65.4 µM) | 9.15 | CC(C)Oc1c(C(=O)Nc2cccn([C@H]3C[C@H]3F)c2=O)cn2cc([C@]34CC[C@](C)(C3)OC4)nc2c1F (single isomer, unassigned) [Example 127]
13 | 2.2 | 53.6 µg/mL (≈ 112 µM) | 8.37 | CC(C)Oc1c(C(=O)Nc2cccn(C3CC3)c2=O)cn2cc([C@]34CC[C@](C)(C3)OC4)nc2c1F (single isomer, unassigned) [Example 68]
14 | 4.8 | 75.7 µg/mL (≈ 158 µM) | 8.89 | CC[C@@H](C)Oc1cc2nc(C34COC(CF)(C3)C4)cn2cc1C(=O)Nc1cccn(C2CC2)c1=O (single isomer, unassigned) [Example 14]
15 | 3.2 | 61.3 µg/mL (≈ 129 µM) | 9.05 | CC[C@@H](C)Oc1cc2nc([C@@]34CC[C@@](C)(C3)OC4)cn2cc1C(=O)Nc1cccn(C2CC2)c1=O (single isomer, unassigned) [Example 21]
16 | 2 | 0.7 µg/mL (≈ 1.52 µM) | 10.00 | Cc1cnc2c(NC(=O)c3cn4cc([C@@]56CC[C@@](C)(C5)OC6)nc4cc3OC(C)C)cnn2c1 (single isomer, unassigned) [Comparator 3B, reference compound]
17 | 8.6 | 54.6 µg/mL (≈ 114 µM) | 10.00 | CC[C@H](C)Oc1cc2nc(C34COC(C)(C3)C4)cn2cc1C(=O)Nc1cccn([C@H]2C[C@H]2F)c1=O (single isomer, unassigned) [Example 161]
18 | 19.2 | 73.4 µg/mL (≈ 146 µM) | 9.70 | C[C@H](Oc1cc2nc(C34COC(C)(C3)C4)cn2cc1C(=O)Nc1cccn(C2C[C@H]2F)c1=O)C(F)F (stereo partly drawn) [Example 184, 7-(((S)-1,1-difluoropropan-2-yl)oxy)-N-(1-((1S,2R)-2-fluorocyclopropyl)-2-oxo-1,2-dihydropyridin-3-yl)-2-(1-methyl-2-oxabicyclo[2.1.1]hexan-4-yl)imidazo[1,2-a]pyridine-6-carboxamide]
19 | 3.9 | 8.5 µg/mL (≈ 17.9 µM) | 9.30 | C[C@]12CC[C@](c3cn4cc(C(=O)Nc5cccn(C6CC6)c5=O)c(OC5CCC5)nc4n3)(CO1)C2 (single isomer, unassigned) [Example 17]
20 | 5.1 | 56.2 µg/mL (≈ 117 µM) | 9.05 | CC(C)Oc1cc2nc([C@]34CC[C@](C)(C3)OC4)cn2cc1C(=O)Nc1cccn([C@@H]2C[C@H]2F)c1=O (single isomer, unassigned) [Example 118]

Row | Compound | efflux ratio at 120 min, 1 μM (MDR1) | solubility kinetic at 24 h [1] | pIC50 (IRAK4)
21 | CC12CCC(c3cn4cc(C(=O)Nc5cccn(C6CC6)c5=O)c(OC5CCC5)cc4n3)(CC1)CO2 [Example 1, 7-cyclobutoxy-N-(1-cyclopropyl-2-oxo-1,2-dihydropyridin-3-yl)-2-(1-methyl-2-oxabicyclo[2.2.2]octan-4-yl)imidazo[1,2-a]pyridine-6-carboxamide] | 1.7 | 56 µg/mL (≈ 115 µM) | 9.70
22 | O=C(Nc1cccn(C2CC2F)c1=O)c1cn2cc([C@]34CO[C@](CF)(C3)C4)nc2nc1OC1CCC1 (mixture of isomers) [Example 106, (rac)-Cis-7-cyclobutoxy-N-(1-(2-fluorocyclopropyl)-2-oxo-1,2-dihydropyridin-3-yl)-2-(1-(fluoromethyl)-2-oxabicyclo[2.1.1]hexan-4-yl)imidazo[1,2-a]pyrimidine-6-carboxamide] | 12.8 | 44.4 µg/mL | 9.30
23 | C[C@@H]1C[C@@H]1n1cccc(NC(=O)c2cn3cc(C45COC(C)(C4)C5)nc3cc2OC2CCC2)c1=O [Example 190, 7-cyclobutoxy-2-(1-methyl-2-oxabicyclo[2.1.1]hexan-4-yl)-N-(1-((1S,2R)-2-methylcyclopropyl)-2-oxo-1,2-dihydropyridin-3-yl)imidazo[1,2-a]pyridine-6-carboxamide trifluoroacetate] | 4.1 | 54.2 µg/mL | 9.05
24 | CC12CC(c3cn4cc(C(=O)Nc5cccn(C6C[C@@H]6F)c5=O)c(OC5CCC5)nc4n3)(CO1)C2 (mixture of isomers) [Example 103, (rac)-Cis-7-cyclobutoxy-N-(1-(2-fluorocyclopropyl)-2-oxo-1,2-dihydropyridin-3-yl)-2-(1-methyl-2-oxabicyclo[2.1.1]hexan-4-yl)imidazo[1,2-a]pyrimidine-6-carboxamide] | 12.8 | 58.8 µg/mL (≈ 123 µM) | 9.40
25 | CC12CCC(c3cn4cc(C(=O)Nc5cccn(C6CC6)c5=O)c(OC5CCC5)cc4n3)(CO1)C2 (stereo not drawn) [Example 23, 7-cyclobutoxy-N-(1-cyclopropyl-2-oxo-1,2-dihydropyridin-3-yl)-2-(1-methyl-2-oxabicyclo[2.2.1]heptan-4-yl)imidazo[1,2-a]pyridine-6-carboxamide] | 2.8 | 61.9 µg/mL (≈ 130 µM) | 9.30
26 | CC12CC(c3cn4cc(C(=O)Nc5ccnn(C6CC6)c5=O)c(OC5CCC5)nc4n3)(CO1)C2 [Example 72, 7-cyclobutoxy-N-(2-cyclopropyl-3-oxo-2,3-dihydropyridazin-4-yl)-2-(1-methyl-2-oxabicyclo[2.1.1]hexan-4-yl)imidazo[1,2-a]pyrimidine-6-carboxamide] | 1.7 | 1.5 µg/mL (≈ 3.24 µM) | 8.38
27 | CC[C@@H](C)Oc1nc2nc([C@@]34CC[C@@](C)(C3)OC4)cn2cc1C(=O)Nc1cccn(C2CC2)c1=O [Example 48, 7-((R)-sec-butoxy)-N-(1-cyclopropyl-2-oxo-1,2-dihydropyridin-3-yl)-2-((1S,4R)-1-methyl-2-oxabicyclo[2.2.1]heptan-4-yl)imidazo[1,2-a]pyrimidine-6-carboxamide] | 3.2 | 63.2 µg/mL (≈ 132 µM) | 9.10
28 | O=C(Nc1cccn(C2CC2)c1=O)c1cn2cc(C34COC(C3)C4)nc2cc1OC1CCC1 [Example 37, 2-(2-oxabicyclo[2.1.1]hexan-4-yl)-7-cyclobutoxy-N-(1-cyclopropyl-2-oxo-1,2-dihydropyridin-3-yl)imidazo[1,2-a]pyridine-6-carboxamide] | 10.2 | 64.4 µg/mL (≈ 144 µM) | 8.51
